{"source": "patent US11161844B2", "about": "“Cyclic substituted imidazo[4,5-c]quinoline derivatives” (Pfizer Inc., priority 2017, dated 2021)", "data": [{"biological_target": "LRRK2, WT (GST-tagged truncated LRRK2) (Homo sapiens (Human), UniProt Q5S007)", "sequence (Q5S007 970-2527)": "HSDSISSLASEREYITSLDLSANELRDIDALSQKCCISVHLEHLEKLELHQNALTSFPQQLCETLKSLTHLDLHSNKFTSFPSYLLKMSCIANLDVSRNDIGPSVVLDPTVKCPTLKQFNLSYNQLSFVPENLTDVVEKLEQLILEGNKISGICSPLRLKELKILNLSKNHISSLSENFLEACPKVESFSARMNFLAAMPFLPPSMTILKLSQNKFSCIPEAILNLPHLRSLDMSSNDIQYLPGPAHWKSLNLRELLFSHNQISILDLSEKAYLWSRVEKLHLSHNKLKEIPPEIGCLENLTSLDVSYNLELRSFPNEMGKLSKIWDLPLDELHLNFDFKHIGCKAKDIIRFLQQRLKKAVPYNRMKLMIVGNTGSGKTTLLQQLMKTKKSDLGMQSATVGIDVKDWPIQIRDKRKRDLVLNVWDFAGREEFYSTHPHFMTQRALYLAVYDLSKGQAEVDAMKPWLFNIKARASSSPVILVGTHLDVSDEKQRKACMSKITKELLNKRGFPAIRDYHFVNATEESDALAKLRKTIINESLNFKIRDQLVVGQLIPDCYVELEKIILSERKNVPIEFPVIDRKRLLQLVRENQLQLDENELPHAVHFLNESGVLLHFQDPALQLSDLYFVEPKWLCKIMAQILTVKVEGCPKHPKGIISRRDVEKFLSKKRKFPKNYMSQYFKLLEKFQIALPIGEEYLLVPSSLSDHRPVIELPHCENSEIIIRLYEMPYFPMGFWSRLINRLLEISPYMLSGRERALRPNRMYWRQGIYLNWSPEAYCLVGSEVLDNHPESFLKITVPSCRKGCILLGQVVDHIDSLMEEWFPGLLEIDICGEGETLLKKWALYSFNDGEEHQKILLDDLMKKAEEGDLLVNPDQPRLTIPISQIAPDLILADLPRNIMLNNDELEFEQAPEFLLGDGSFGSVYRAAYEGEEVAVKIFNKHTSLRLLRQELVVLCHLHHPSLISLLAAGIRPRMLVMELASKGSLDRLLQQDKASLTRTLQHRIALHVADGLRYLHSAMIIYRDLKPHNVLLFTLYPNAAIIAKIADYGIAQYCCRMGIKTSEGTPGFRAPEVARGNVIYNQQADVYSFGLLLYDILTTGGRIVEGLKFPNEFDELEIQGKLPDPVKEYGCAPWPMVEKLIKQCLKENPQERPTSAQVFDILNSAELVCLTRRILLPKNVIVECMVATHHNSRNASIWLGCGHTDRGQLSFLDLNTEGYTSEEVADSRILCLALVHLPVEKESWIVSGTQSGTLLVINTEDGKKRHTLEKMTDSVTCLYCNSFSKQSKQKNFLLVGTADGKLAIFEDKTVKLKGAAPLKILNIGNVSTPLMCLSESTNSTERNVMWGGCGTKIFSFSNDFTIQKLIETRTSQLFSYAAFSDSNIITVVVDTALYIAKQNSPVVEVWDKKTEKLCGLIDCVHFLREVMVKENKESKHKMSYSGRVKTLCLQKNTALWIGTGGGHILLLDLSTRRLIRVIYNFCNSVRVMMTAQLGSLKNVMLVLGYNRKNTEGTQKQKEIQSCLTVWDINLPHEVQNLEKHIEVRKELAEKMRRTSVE", "assay": "LRRK2 kinase assay (Lantha Screen), wild type", "assay_type": "biochemical", "conditions": "100 nM LRRKtide, 1 mM ATP, 2 μg/mL enzyme; geometric mean of 2-4 determinations unless otherwise indicated", "procedure": "LRRK2 kinase activity was measured using Lantha Screen technology from Invitrogen. GST-tagged truncated LRRK2 from Invitrogen (Cat #PV4874) was incubated with a fluorescein-labeled peptide substrate based upon ezrin/radixin/moesin (ERM), also known as LRRKtide (Invitrogen cat #PR8976A), in the presence of a dose response of compound. Upon completion, the assay was stopped and detected with a terbium labeled anti-phospho-ERM antibody (Invitrogen, cat #PR8975A). The assay was carried out under the following protocol: The compound dose response was prepared by diluting compound to a top concentration of 0.3 mM in 100% DMSO and serial diluted by half-log in DMSO to give an 11 point curve, 100× final assay concentration. Using Echo acoustic dispensing, 60 nL of compound was transferred to a low volume Corning 384-well assay plate. 3 μL of a working solution of substrate (200 nM LRRKtide, 2 mM ATP) prepared in assay buffer (50 mM HEPES, pH 7.5, 3 mM MgCl2, with 2 mM DTT and 0.01% Brij35 added fresh) was added to the 60 nL compound assay plate. The kinase reaction was started with 3 μL of a working solution of LRRK2 enzyme at a concentration of 4 μg/mL. The final reaction concentrations were 100 nM LRRKtide, 1 mM ATP, 2 μg/mL LRRK2 enzyme and a compound dose response with a top dose of 3 μM. The reaction was allowed to progress at room temperature for 30 minutes and then stopped with the addition of 6 μL of detection buffer (20 mM Tris pH 7.6, 0.01% NP-40, 6 mM EDTA with 2 nM terbium labeled anti-phospho-ERM). After an incubation of 1 hour at room temperature, the plate was read on an Envision with an excitation wavelength of 340 nm and a reading emission at both 520 nm and 495 nm. The ratio of the 520 nm and 495 nm emission was used to analyze the data. Inhibition of mutant G2019S LRRK2 (Invitrogen cat #PV4881) was measured in the exact same method. All final concentrations of substrate ATP and enzyme were the same.", "units": {"IC50": "µM"}, "values": [{"smiles": "CN1CC(n2c(C3CCC(F)C3)nc3cnc4ccc(C#N)cc4c32)C(F)(F)C1", "note": "(stereo not shown) [Example 64, 1-(4,4-difluoro-1-methylpyrrolidin-3-yl)-2-(3-fluorocyclopentyl)-1H-imidazo[4,5-c]quinoline-8-carbonitrile]", "IC50": 2.3}, {"smiles": "CN1CC(n2c(C3CCC(F)C3)nc3cnc4ccc(C#N)cc4c32)C(F)(F)C1", "note": "(stereo not shown) [Example 61, 1-(4,4-difluoro-1-methylpyrrolidin-3-yl)-2-(3-fluorocyclopentyl)-1H-imidazo[4,5-c]quinoline-8-carbonitrile]", "IC50": 0.464}, {"smiles": "CO[C@H]1C[C@H](c2nc3cnc4ccc(C#N)cc4c3n2C2CCOCC2(F)F)C1", "note": "(stereo partly drawn) [Example 51, 1-(3,3-difluorotetrahydro-2H-pyran-4-yl)-2-(trans-3-methoxycyclobutyl)-1H-imidazo[4,5-c]quinoline-8-carbonitrile]", "IC50": 0.272}, {"smiles": "C[C@@H]1C[C@H](n2c(C3CCC(F)C3)nc3cnc4ccc(F)cc4c32)CCO1", "note": "(stereo partly drawn) [Example 37, 8-fluoro-2-[trans-3-fluorocyclopentyl]-1-[(2R,4R)-2-methyltetrahydro-2H-pyran-4-yl]-1H-imidazo[4,5-c]quinoline]", "IC50": 0.2}, {"smiles": "C[C@@H]1C[C@H](n2c(C3CCC(F)C3)nc3cnc4ccc(F)cc4c32)CCO1", "note": "(stereo partly drawn) [Example 38, 8-fluoro-2-[trans-3-fluorocyclopentyl]-1-[(2R,4R)-2-methyltetrahydro-2H-pyran-4-yl]-1H-imidazo[4,5-c]quinoline]", "IC50": 0.202}, {"smiles": "CN1CC(n2c(C3CCC(F)C3)nc3cnc4ccc(C#N)cc4c32)C(F)(F)C1", "note": "(stereo not shown) [Example 62, 1-(4,4-difluoro-1-methylpyrrolidin-3-yl)-2-(3-fluorocyclopentyl)-1H-imidazo[4,5-c]quinoline-8-carbonitrile]", "IC50": "> 3"}, {"smiles": "C[C@@H]1C[C@H](n2c([C@H]3CCOC3)nc3cnc4ccc(C(F)F)cc4c32)CCO1", "note": "[Example 21, 8-(difluoromethyl)-1-((2R,4R)-2-methyltetrahydro-2H-pyran-4-yl)-2-((R)-tetrahydrofuran-3-yl)-1H-imidazo[4,5-c]quinoline]", "IC50": 0.0166}, {"smiles": "CO[C@H]1C[C@H](c2nc3cnc4ccc(C#N)cc4c3n2C2CCOCC2(F)F)C1", "note": "(stereo partly drawn) [Example 50, 1-(3,3-difluorotetrahydro-2H-pyran-4-yl)-2-(trans-3-methoxycyclobutyl)-1H-imidazo[4,5-c]quinoline-8-carbonitrile]", "IC50": "> 3"}, {"smiles": "CC1(C)C[C@H](n2c([C@H]3CC[C@@H](F)C3)nc3cnc4ccc(C#N)cc4c32)CCO1", "note": "[Example 56, 1-[(4R)-2,2-dimethyltetrahydro-2H-pyran-4-yl]-2-[(1S,3R)-3-fluorocyclopentyl]-1H-imidazo[4,5-c]quinoline-8-carbonitrile]", "IC50": "> 3"}, {"smiles": "CC1(C)C[C@H](n2c([C@H]3CC[C@H](F)C3)nc3cnc4ccc(C#N)cc4c32)CCO1", "note": "[Example 53, 1-[(4R)-2,2-dimethyltetrahydro-2H-pyran-4-yl]-2-[(1S,3S)-3-fluorocyclopentyl]-1H-imidazo[4,5-c]quinoline-8-carbonitrile]", "IC50": 0.413}, {"smiles": "N#Cc1ccc2ncc3nc([C@H]4C[C@H](F)C4)n(C4CCOCC4(F)F)c3c2c1", "note": "(stereo partly drawn) [Example 45, 1-(3,3-difluorotetrahydro-2H-pyran-4-yl)-2-(trans-3-fluorocyclobutyl)-1H-imidazo[4,5-c]quinoline-8-carbonitrile]", "IC50": 2.14}, {"smiles": "CN1CC(n2c(C3CCC(F)C3)nc3cnc4ccc(C#N)cc4c32)C(F)(F)C1", "note": "(stereo not shown) [Example 63, 1-(4,4-difluoro-1-methylpyrrolidin-3-yl)-2-(3-fluorocyclopentyl)-1H-imidazo[4,5-c]quinoline-8-carbonitrile]", "IC50": "> 1.84"}, {"smiles": "CC1(C)C[C@H](n2c([C@@H]3CC[C@@H](F)C3)nc3cnc4ccc(C#N)cc4c32)CCO1", "note": "[Example 55, 1-[(4R)-2,2-dimethyltetrahydro-2H-pyran-4-yl]-2-[(1R,3R)-3-fluorocyclopentyl]-1H-imidazo[4,5-c]quinoline-8-carbonitrile]", "IC50": 2.52}]}]}
